Here are results for 79 molecules from US9452170B2, “Compounds and methods for inducing chondrogenesis” (The California Institute for Biomedical Research, priority 2013, dated 2016).

The subject of the assay is Human MSCs. The assay is described as follows: Human chondrocyte differentiation assay (immunostaining for type II collagen, Sox9 and COMP). The class given is cell-based. Particulars: 168 h, compound 1 μM, 7 days, vs DMSO vehicle, read-out: Biological Activity (increase in staining intensity compared to vehicle control). How it is done: Human MSCs (50,000) were plated into each well of a 96-well plate and cultured overnight. Compounds (in DMSO solution) were added to the cells at a final concentration of 1 μM, and the cells were cultured for 7 days at 5% CO2, 37° C. The cells were fixed with 10% formalin solution at room temperature for 10 min, and immunostained using antibodies specific for type II collagen (Abcam), Sox9 (Santa Cruz) and cartilage oligomeric matrix protein (COMP, Santa Cruz), and fluorescently labeled secondary antibodies (Li-Cor). The total intensity of the staining was measured using Oddyssey CLx imaging system (Li-Cor). Vehicle (DMSO) was used as control to determine the basal level of chondrocyte differentiation. […] Representative data are shown in Table 1 [A: >50% increase in staining intensity compared to vehicle control; B: 30-50% increase in staining intensity compared to vehicle control].
For `Cc1ccc(NC(=O)c2ccccc2C(=O)O)c(F)c1` [Compound 85], the activation at 1 µM lay in the range of 30 to 50%. For `Cc1cccc(C(=O)Nc2ccc(CCCO)cc2)c1C(=O)O` [Compound 189] the value was > 50%. On to `CS(=O)(=O)Nc1ccccc1C(=O)Nc1ccc(Br)cc1` [Compound 46], for which the activation at 1 µM was 30 to 50%. Regarding `O=C(Nc1cccc(C(F)(F)F)c1)Nc1ccccc1C(=O)O` [Compound 196], the activation at 1 µM lay within 30 to 50%.

For the molecule `O=C(O)c1ccccc1C(=O)Nc1ccc2c(c1)OCO2` [Compound 65], the activation at 1 µM is > 50%. For `COc1cc(NC(=O)c2ccccc2C(=O)O)ccc1CCCO` [Compound 178] the value was 30 to 50%; for `O=C(Nc1ccccc1S(=O)(=O)N1CCOCC1)c1ccccc1F` [Compound 118], 30 to 50%; for `CC(=O)c1ccccc1NC(=O)Nc1ccccc1C(=O)O` [Compound 205], 30 to 50%.

On to `CC(CO)c1ccc(NC(=O)c2ccccc2C(=O)O)cc1` (stereo not shown) [Compound 84], for which the activation at 1 µM is > 50%. Then `N#Cc1ccccc1NC(=O)c1ccccc1C(=O)O` [Compound 70], with > 50%.

`O=C(O)Cc1ccc(CNC(=O)c2ccccc2C(=O)O)cc1` [Compound 164]: the activation at 1 µM is > 50%. For `O=C(O)c1cc(Cl)ccc1C(=O)Nc1ccc(CCCO)cc1` [Compound 184], the activation at 1 µM was in the range of 30 to 50%. Take `O=C(O)c1ccc(CNC(=O)c2c(Cl)cccc2C(=O)O)cc1` [Compound 100]: the activation at 1 µM fell in the range of 30 to 50%. With `O=C(O)c1ccccc1C(=O)Nc1cc(Cl)cc(C(F)(F)F)c1` [Compound 12], the activation at 1 µM was in the range of 30 to 50%. For `COc1ccc(OC)c(NC(=O)c2ccccc2C(=O)O)c1` [Compound 87] the value was 30 to 50%; for `COC(=O)c1ccccc1NC(=O)Nc1ccc2ccccc2c1` [Compound 201], 30 to 50%. As for `N#Cc1ccc(NC(=O)c2ccccc2-c2ccccc2C(=O)O)cc1` [Compound 61], the activation at 1 µM is > 50%. Regarding `CC(O)Cc1ccc(NC(=O)c2ccccc2C(=O)O)cc1` (stereo not shown) [Compound 52], the activation at 1 µM lay within 30 to 50%. For `O=C(O)c1ccccc1C(=O)Nc1ccc(CCCO)cc1OC(F)(F)F` [Compound 148] the value was 30 to 50%; for `CN(C(N)=O)c1ccccc1C(=O)Nc1ccc(C#N)cc1` [Compound 75], 30 to 50%; for `O=C(O)c1ccccc1C(=O)NCCOc1ccccc1` [Compound 81], 30 to 50%. Take `COc1ccc2c(c1)C(=O)N(c1ccc(C(=O)O)cc1)C2=O` [Compound 16]: the activation at 1 µM is > 50%. Regarding `O=C(Nc1ccccc1)Nc1ccccc1C(=O)O` [Compound 203], the activation at 1 µM lay within 30 to 50%. As to `Cc1cnccc1NC(=O)c1ccccc1C(=O)O` [Compound 67], the activation at 1 µM is > 50%. Take `CC(=O)c1ccc(F)c(NC(=O)c2ccccc2C(=O)O)c1` [Compound 30]: the activation at 1 µM was in the range of 30 to 50%. For `CNS(=O)(=O)c1ccc(N2CCCC2=O)cc1` [Compound 28] the value was 30 to 50%; for `O=C(O)c1ccccc1C(=O)Nc1cccc(OC(F)(F)F)c1` [Compound 19], > 50%. As for `COc1ccc(C#N)cc1NC(=O)c1ccccc1C(=O)O` [Compound 6], the activation at 1 µM is > 50%.

As to `CC(=O)CCc1cccc(NC(=O)c2ccccc2C(=O)O)c1` [Compound 145], the activation at 1 µM was 30 to 50%. For `O=C(O)c1cc(CCCO)ccc1NC(=O)c1ccccc1C(=O)O` [Compound 176], the activation at 1 µM was in the range of 30 to 50%. Turning to `O=C(O)c1ccccc1NC(=O)c1ccccc1C(=O)O` [Compound 55], the activation at 1 µM is > 50%. For `CN(CCO)S(=O)(=O)c1ccccc1NC(=O)c1ccc(F)cc1` [Compound 125] the value was 30 to 50%. For `COC(=O)c1ccccc1NC(=O)Nc1cccc(C#N)c1` [Compound 202], the activation at 1 µM was > 50%. On to `Cc1cc(NC(=O)c2ccccc2C(=O)O)ccn1` [Compound 66], for which the activation at 1 µM lay within 30 to 50%. Take `CS(=O)(=O)NCc1cccc(NC(=O)c2ccccc2C(=O)O)c1` [Compound 72]: the activation at 1 µM was > 50%.

`C/C(=N\O)c1cccc(NC(=O)c2ccccc2C(=O)O)c1` [Compound 58]: the activation at 1 µM lay within 30 to 50%.

For `CC(=O)Cc1ccc(CNC(=O)c2ccccc2C(=O)O)cc1` [Compound 166], the activation at 1 µM lay within 30 to 50%. As to `O=C(O)Cc1ccccc1C(=O)Nc1ccc(CCO)cc1` [Compound 47], the activation at 1 µM was in the range of 30 to 50%. For the molecule `CC(=O)N(C)Cc1cccc(NC(=O)c2ccccc2C(=O)O)c1` [Compound 50], the activation at 1 µM lay within 30 to 50%. Take `O=C(O)c1ccc(Cl)cc1C(=O)Nc1ccc(CCCO)cc1` [Compound 187]: the activation at 1 µM was 30 to 50%. For `CC(=O)c1ccc(Cl)c(NC(=O)c2ccccc2C(=O)O)c1` [Compound 4] the value was > 50%; for `COC(=O)c1ccccc1NC(=O)Nc1ccccc1C(F)(F)F` [Compound 194], 30 to 50%. For `COC(=O)c1ccccc1NC(=O)Nc1cccc(C(F)(F)F)c1` [Compound 195], the activation at 1 µM was in the range of 30 to 50%.

Consider `CC(=O)c1cccc(NC(=O)Nc2ccccc2C(=O)O)c1` [Compound 204], for which the activation at 1 µM fell in the range of 30 to 50%. As to `COc1ccc(NC(=O)c2ccccc2C(=O)O)cc1C#N` [Compound 7], the activation at 1 µM was > 50%.

`O=C(O)c1ccc(CNC(=O)c2c(F)cccc2C(=O)O)cc1` [Compound 94]: the activation at 1 µM was in the range of 30 to 50%. For `O=C(O)c1ccc(S(=O)(=O)Nc2ccccc2C(=O)O)cc1` [Compound 53] the value was 30 to 50%; for `CS(=O)(=O)Nc1ccccc1C(=O)NCc1ccc(C(=O)O)cc1` [Compound 120], 30 to 50%; for `N#Cc1cc(Cl)ccc1NC(=O)c1ccccc1C(=O)O` [Compound 8], 30 to 50%. For `O=C(O)c1ccccc1C(=O)NCc1ccccc1OC(F)F` [Compound 86], the activation at 1 µM lay in the range of 30 to 50%.

For the molecule `N#Cc1cccc(C(=O)CC2NC(=O)c3ccccc32)c1` (stereo not shown) [Compound 39], the activation at 1 µM is 30 to 50%. In the case of `CCCS(=O)(=O)Nc1ccccc1C(=O)Nc1ccc(CCOC)cc1` [Compound 159], the activation at 1 µM lay within 30 to 50%.

Consider `COc1cc(CNC(=O)c2ccccc2C(=O)O)ccc1C(=O)O` [Compound 154], for which the activation at 1 µM was in the range of 30 to 50%. For the molecule `O=C(O)c1cccc(F)c1C(=O)Nc1ccc(CCCO)cc1` [Compound 182], the activation at 1 µM was 30 to 50%.

As to `Cc1ncsc1NC(=O)c1ccccc1C(=O)O` [Compound 22], the activation at 1 µM fell in the range of 30 to 50%. On to `O=C(O)c1ccccc1C(=O)Nc1ccc(-c2ncc[nH]2)cc1` [Compound 74], for which the activation at 1 µM lay in the range of 30 to 50%.

Turning to `COC(=O)N(C)Cc1cccc(NC(=O)c2ccccc2C(=O)O)c1` [Compound 49], the activation at 1 µM was in the range of 30 to 50%. As for `N#Cc1cc(Cl)cc(NC(=O)c2ccccc2C(=O)O)c1` [Compound 3], the activation at 1 µM was > 50%. Regarding `CC(=O)c1cccc(C(=O)Nc2ccccc2S(=O)(=O)N2CCOCC2)c1` [Compound 122], the activation at 1 µM is > 50%. On to `O=C(O)c1ccccc1C(=O)Nc1ccc(OCCO)cc1` [Compound 105], for which the activation at 1 µM lay within 30 to 50%. With `O=C(Nc1ccccc1S(=O)(=O)N1CCOCC1)c1ccc(-c2ccccc2)cc1` [Compound 133], the activation at 1 µM fell in the range of 30 to 50%. `COCCc1ccc(NC(=O)c2ccccc2NS(=O)(=O)C(C)C)cc1` [Compound 162]: the activation at 1 µM was in the range of 30 to 50%. For the molecule `O=C(Nc1ccccc1S(=O)(=O)N1CCS(=O)(=O)CC1)c1ccc(F)cc1` [Compound 141], the activation at 1 µM was in the range of 30 to 50%. Consider `NS(=O)(=O)c1ccc(N2Cc3ccccc3C2=O)cc1` [Compound 26], for which the activation at 1 µM fell in the range of 30 to 50%. Then `NC(=O)c1ccc(CNC(=O)c2ccccc2C(=O)O)cc1` [Compound 172], with 30 to 50%; and `COc1cccc(NC(=O)c2ccccc2C(=O)O)c1` [Compound 48], with 30 to 50%; and `NS(=O)(=O)c1ccc(N2C(=O)c3ccccc3C2=O)cc1` [Compound 15], with 30 to 50%. On to `CS(=O)(=O)c1ccc(C(=O)CC2OC(=O)c3ccccc32)cc1` (stereo not shown) [Compound 44], for which the activation at 1 µM is 30 to 50%. Regarding `N#Cc1ccc(Cl)c(NC(=O)c2ccccc2C(=O)O)c1` [Compound 1], the activation at 1 µM was 30 to 50%. Turning to `CC(C(=O)c1ccc(C#N)cc1)C1OC(=O)c2ccccc21` (stereo not shown) [Compound 23], the activation at 1 µM was > 50%. As to `CN(c1ccccc1C(=O)Nc1ccc(C#N)cc1)S(C)(=O)=O` [Compound 78], the activation at 1 µM lay within 30 to 50%. With `CON=C(C)c1cccc(NC(=O)c2ccccc2C(=O)O)c1` [Compound 59], the activation at 1 µM fell in the range of 30 to 50%. Then `CS(=O)(=O)c1cccc(NC(=O)c2ccccc2C(=O)O)c1` [Compound 38], with 30 to 50%; and `CN(c1cccc(NC(=O)c2ccccc2C(=O)O)c1)S(C)(=O)=O` [Compound 107], with 30 to 50%; and `N#Cc1cc(NC(=O)c2ccccc2C(=O)O)cc(C(F)(F)F)c1` [Compound 9], with > 50%. With `O=C(CC1OC(=O)c2ccccc21)c1ccccc1Cl` (stereo not shown) [Compound 41], the activation at 1 µM is > 50%. Regarding `O=C(O)c1ccc(CNC(=O)c2cccc(Cl)c2C(=O)O)cc1` [Compound 99], the activation at 1 µM fell in the range of 30 to 50%. As to `NCc1cccc(NC(=O)c2ccccc2C(=O)O)c1` [Compound 71], the activation at 1 µM is > 50%. `COCCS(=O)(=O)Nc1ccccc1C(=O)Nc1ccc(C#N)cc1` [Compound 79]: the activation at 1 µM was 30 to 50%.
